The subject of test [1] is Salmon testes DNA. Put plainly: Binding affinity towards salmon testes DNA. The format is nucleic-acid assay. The settings on record: Oncorhynchus gorbuscha.
Test [2] concerns A2780. In words: In vitro cytotoxicity for human ovarian tumor A2780 cells. The format is functional, cell-based.
Test [3] relates to Salmon testes DNA. Put plainly: Binding affinity towards salmon testes DNA; NA=not applicable. The format is nucleic-acid assay. The settings on record: Oncorhynchus gorbuscha.

pIC50: −log10 of the molar value. The source made the active and inactive calls. The rule behind the calls is not given here.

Turning to `c1ccc2c(c1)C1=NCCN1c1ccccc1-2`, in test [1], the K is 25600 M⁻¹. In addition, the pIC50 in test [2] (Homo sapiens, A2780) was 5.81. CARBOPLATIN [listing 1 of 2 here]: the pIC50 in test [2] (a2780) is 5.28. With `OCC[N+]1=C2c3ccccc3-c3ccccc3N2CC1`, the K in test [1] came to 20200 M⁻¹. In test [2] (Homo sapiens, A2780), this molecule had a pIC50 of 4.93. Turning to CARBOPLATIN [listing 2 of 2 here], the K entry in test [3] is “inactive”.

The molecule `CCCCCCCCCCCC[N+]1=C2c3ccccc3-c3ccccc3N2CC1` gave a K in test [1] of 129000 M⁻¹. In test [2] (Homo sapiens, A2780), this molecule showed a pIC50 of 7.06. Taken in the same sequence, the figures for `COc1ccc2c(c[n+](C)c3c4cc5c(cc4ccc23)OCO5)c1OC` [CHELERYTHRINE CHLORIDE] were 466000 M⁻¹ and 5.33. For `COc1ccc(C[N+]2=C3c4ccccc4-c4ccccc4N3CC2)cc1` the same measures were 28900 M⁻¹ and 5.82.
